What was measured:
S. pneumoniae D39V [1] = experiment: Bliss interaction score (quartile over a dose matrix) (fitness difference); higher = more antagonism (negative = synergy)
Procedure, shortened: (§1)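 Growth in each well was taken as OD595 at entry into stationary phase. Dividing by the plate's robust no-drug mean and capping at 1 gave fitness, and single-drug fitness was inferred from the combination data. The Bliss score, observed minus product-expected fitness, is summarised by quartiles over technical, biological and donor/recipient replicates.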

B. subtilis 168 [2] = experiment: as above
Procedure, shortened: as §1

S. aureus Newman [3] = experiment: as above
Procedure, shortened: as §1

S. aureus DSM 20231 [4] = experiment: as above
Procedure, shortened: as §1

S. pneumoniae D39V [5] = experiment: fitness (endpoint OD595 vs no drug) (fraction); higher = more growth
Procedure, shortened: (§2)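 In 384-well plates at 37 °C, cultures began at OD595 0.01 in 30 µl, with 55 µl used for S. pneumoniae. OD595 readings every 30 min for 14 h were corrected by the first reading. Fitness divides the stationary-phase transition optical density by the robust mean of no-drug control wells. The result is capped at 1.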

B. subtilis 168 [6] = experiment: as above
Procedure, shortened: as §2

S. aureus Newman [7] = experiment: as above
Procedure, shortened: as §2

S. aureus DSM 20231 [8] = experiment: as above
Procedure, shortened: as §2
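Throughout, for Bliss interaction score (quartile over a dose matrix): first quartile when negative (synergy) and third quartile when positive (antagonism).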

Cc1onc(-c2ccccc2)c1C(=O)N[C@@H]1C(=O)N2[C@@H]1SC(C)(C)[C@@H]2C(=O)O [Oxacillin] + CN[C@@H]1[C@H](O[C@H]2[C@H](O[C@H]3[C@H](O)[C@@H](O)[C@H](N=C(N)N)[C@@H](O)[C@@H]3N=C(N)N)O[C@@H](C)[C@]2(O)C=O)O[C@@H](CO)[C@H](O)[C@H]1O [Streptomycin]
Details | Bliss interaction score
B. subtilis 168 [2] | -0.113
S. aureus DSM 20231 [4] | -0.0653
S. aureus Newman [3] | -0.0537
S. pneumoniae D39V [1] | 0.093

fitness
Details | partner 1 µg/mL | partner 2 µg/mL | partner 4 µg/mL | partner 8 µg/mL
B. subtilis 168 [6], first compound 0.002 µg/mL | – | 0.982 | 0.369 | 0.0333
B. subtilis 168 [6], first compound 0.004 µg/mL | – | 0.941 | 0.208 | 0.0502
B. subtilis 168 [6], first compound 0.008 µg/mL | – | 0.931 | 0.134 | 0.0492
S. aureus Newman [7], first compound 0.0156 µg/mL | 0.808 | 0.726 | – | –
S. aureus Newman [7], first compound 0.0312 µg/mL | 0.738 | 0.644 | – | –
S. aureus Newman [7], first compound 0.0625 µg/mL | 0.606 | 0.531 | – | –
S. pneumoniae D39V [5], first compound 0.01 µg/mL | – | 0.938 | 0.98 | 0.909
S. pneumoniae D39V [5], first compound 0.02 µg/mL | – | 0.88 | 0.931 | 0.908
S. pneumoniae D39V [5], first compound 0.04 µg/mL | – | 0.33 | 0.399 | 0.441

fitness, one replicate
Details | first compound 0.01 µg/mL | first compound 0.02 µg/mL | first compound 0.04 µg/mL | first compound 0.075 µg/mL | first compound 0.15 µg/mL | first compound 0.3 µg/mL
B. subtilis 168 [6], partner 2 µg/mL | – | – | – | 0.534 | 0.0325 | 0.0421
B. subtilis 168 [6], partner 4 µg/mL | – | – | – | 0.0966 | 0.025 | 0.0294
B. subtilis 168 [6], partner 8 µg/mL | – | – | – | 0.0343 | 0.0288 | 0.0352
S. pneumoniae D39V [5], partner 16 µg/mL | 0.887 | 0.863 | 0.436 | – | – | –

Cc1onc(-c2ccccc2)c1C(=O)N[C@@H]1C(=O)N2[C@@H]1SC(C)(C)[C@@H]2C(=O)O [Oxacillin] + COc1cc(Cc2cnc(N)nc2N)cc(OC)c1OC [Trimethoprim]
Details | Bliss interaction score
B. subtilis 168 [2] | 0.0589
S. aureus DSM 20231 [4] | 0.0401
S. aureus Newman [3] | -0.0935
S. pneumoniae D39V [1] | 0.164

fitness
Details | partner 0.25 µg/mL | partner 0.5 µg/mL | partner 1 µg/mL
B. subtilis 168 [6], first compound 0.002 µg/mL | – | 0.46 | –
B. subtilis 168 [6], first compound 0.004 µg/mL | – | 0.475 | –
B. subtilis 168 [6], first compound 0.008 µg/mL | – | 0.467 | –
B. subtilis 168 [6], first compound 0.031 µg/mL | – | 0.384 | –
S. aureus DSM 20231 [8], first compound 0.0156 µg/mL | 0.561 | 0.129 | 0.0621
S. aureus DSM 20231 [8], first compound 0.0312 µg/mL | 0.559 | 0.147 | 0.0523
S. aureus DSM 20231 [8], first compound 0.0625 µg/mL | 0.438 | 0.0674 | 0.0399

one replicate
Details | fitness
B. subtilis 168 [6], first compound 0.002 µg/mL, partner 1 µg/mL | 0.498
B. subtilis 168 [6], first compound 0.002 µg/mL, partner 2 µg/mL | 0.37
B. subtilis 168 [6], first compound 0.004 µg/mL, partner 1 µg/mL | 0.418
B. subtilis 168 [6], first compound 0.004 µg/mL, partner 2 µg/mL | 0.257
B. subtilis 168 [6], first compound 0.0078 µg/mL, partner 0.1 µg/mL | 0.898
B. subtilis 168 [6], first compound 0.0078 µg/mL, partner 0.125 µg/mL | 0.385
B. subtilis 168 [6], first compound 0.0078 µg/mL, partner 0.2 µg/mL | 0.804
B. subtilis 168 [6], first compound 0.0078 µg/mL, partner 0.4 µg/mL | 0.578
B. subtilis 168 [6], first compound 0.008 µg/mL, partner 1 µg/mL | 0.351
B. subtilis 168 [6], first compound 0.008 µg/mL, partner 2 µg/mL | 0.304
B. subtilis 168 [6], first compound 0.0155 µg/mL, partner 0.1 µg/mL | 0.839
B. subtilis 168 [6], first compound 0.0155 µg/mL, partner 0.125 µg/mL | 0.363
B. subtilis 168 [6], first compound 0.0155 µg/mL, partner 0.2 µg/mL | 0.802
B. subtilis 168 [6], first compound 0.0155 µg/mL, partner 0.4 µg/mL | 0.599
B. subtilis 168 [6], first compound 0.031 µg/mL, partner 0.1 µg/mL | 0.882
B. subtilis 168 [6], first compound 0.031 µg/mL, partner 0.125 µg/mL | 0.352
B. subtilis 168 [6], first compound 0.031 µg/mL, partner 0.2 µg/mL | 0.763
B. subtilis 168 [6], first compound 0.031 µg/mL, partner 0.4 µg/mL | 0.536
B. subtilis 168 [6], first compound 0.075 µg/mL, partner 0.125 µg/mL | 0.0694
B. subtilis 168 [6], first compound 0.075 µg/mL, partner 0.25 µg/mL | 0.0331
B. subtilis 168 [6], first compound 0.075 µg/mL, partner 0.5 µg/mL | 0.026
B. subtilis 168 [6], first compound 0.15 µg/mL, partner 0.125 µg/mL | 0.0313
B. subtilis 168 [6], first compound 0.15 µg/mL, partner 0.25 µg/mL | 0.0424
B. subtilis 168 [6], first compound 0.15 µg/mL, partner 0.5 µg/mL | 0.0705
B. subtilis 168 [6], first compound 0.3 µg/mL, partner 0.125 µg/mL | 0.0436
B. subtilis 168 [6], first compound 0.3 µg/mL, partner 0.25 µg/mL | 0.0503
B. subtilis 168 [6], first compound 0.3 µg/mL, partner 0.5 µg/mL | 0.0489
S. aureus DSM 20231 [8], first compound 0.0156 µg/mL, partner 0.125 µg/mL | 0.558
S. aureus DSM 20231 [8], first compound 0.0312 µg/mL, partner 0.125 µg/mL | 0.523
S. aureus DSM 20231 [8], first compound 0.0625 µg/mL, partner 0.125 µg/mL | 0.477

C[n+]1ccc(-c2cc[n+](C)cc2)cc1 [Paraquat] + CN(C)c1cc(NC(=O)CNC(C)(C)C)c(O)c2c1C[C@H]1C[C@H]3[C@H](N(C)C)C(O)=C(C(N)=O)C(=O)[C@@]3(O)C(O)=C1C2=O [Tigecycline]
Details | Bliss interaction score
B. subtilis 168 [2] | -0.0331
S. aureus DSM 20231 [4] | 0.0449
S. aureus Newman [3] | 0.0431
S. pneumoniae D39V [1] | -0.0568

fitness
Details | first compound 1.25 µg/mL | first compound 1.5 µg/mL | first compound 2.5 µg/mL | first compound 3 µg/mL | first compound 5 µg/mL | first compound 6 µg/mL
B. subtilis 168 [6], partner 0.039 µg/mL | 0.982 | – | 0.975 | – | 0.88 | –
B. subtilis 168 [6], partner 0.078 µg/mL | 0.919 | – | 0.957 | – | 0.86 | –
B. subtilis 168 [6], partner 0.156 µg/mL | 0.94 | – | 0.93 | – | 0.84 | –
S. aureus Newman [7], partner 0.039 µg/mL | 0.905 | – | 0.929 | – | 0.881 | –
S. aureus Newman [7], partner 0.078 µg/mL | ≥ 1 | – | 0.952 | – | 0.934 | –
S. aureus Newman [7], partner 0.156 µg/mL | 0.975 | – | 0.925 | – | 0.898 | –
S. pneumoniae D39V [5], partner 0.65 µg/mL | – | 0.974 | – | 0.967 | – | 0.939
S. pneumoniae D39V [5], partner 1.3 µg/mL | – | 0.956 | – | 0.986 | – | 0.951
S. pneumoniae D39V [5], partner 2.6 µg/mL | – | 0.923 | – | 0.9 | – | 0.898

fitness, B. subtilis 168 [6], one replicate
Details | first compound 1.25 µg/mL | first compound 2.5 µg/mL | first compound 5 µg/mL
partner 0.125 µg/mL | ≥ 1 | ≥ 1 | ≥ 1
partner 0.25 µg/mL | ≥ 1 | 0.93 | 0.941
partner 0.5 µg/mL | 0.998 | 0.973 | 0.893

C[n+]1ccc(-c2cc[n+](C)cc2)cc1 [Paraquat] + CN[C@@H]1[C@H](O[C@H]2[C@H](O[C@H]3[C@H](O)[C@@H](O)[C@H](N=C(N)N)[C@@H](O)[C@@H]3N=C(N)N)O[C@@H](C)[C@]2(O)C=O)O[C@@H](CO)[C@H](O)[C@H]1O [Streptomycin]
Details | Bliss interaction score
B. subtilis 168 [2] | -0.119
S. aureus DSM 20231 [4] | 0.118
S. aureus Newman [3] | 0.0567
S. pneumoniae D39V [1] | -0.0799

fitness
Details | partner 1 µg/mL | partner 2 µg/mL | partner 4 µg/mL | partner 8 µg/mL
B. subtilis 168 [6], first compound 1.25 µg/mL | – | 0.886 | – | 0.0237
B. subtilis 168 [6], first compound 2.5 µg/mL | – | 0.924 | – | 0.0505
B. subtilis 168 [6], first compound 5 µg/mL | – | 0.777 | 0.26 | 0.0406
S. aureus Newman [7], first compound 1.25 µg/mL | 0.99 | 0.882 | – | –
S. aureus Newman [7], first compound 2.5 µg/mL | 0.907 | 0.912 | – | –
S. aureus Newman [7], first compound 5 µg/mL | 0.908 | 0.859 | – | –
S. pneumoniae D39V [5], first compound 1.5 µg/mL | – | 0.953 | 0.983 | 0.89
S. pneumoniae D39V [5], first compound 3 µg/mL | – | 0.967 | 0.964 | 0.884
S. pneumoniae D39V [5], first compound 6 µg/mL | – | 0.946 | 0.916 | 0.866

S. pneumoniae D39V [5], partner 16 µg/mL, one replicate
Details | fitness
first compound 1.5 µg/mL | 0.865
first compound 3 µg/mL | 0.857
first compound 6 µg/mL | 0.722
